In patent publication US20230026360A1, “DETECTION OF MOLECULAR INTERACTIONS” (Orionis Biosciences, Inc., priority 2019, published 2023):
“Also recorded” adds a separate entry of the source.

Experiments:
Format in all cases: cell-based
[1] = target: T1, CRBN-IKZF1 interaction (Homo sapiens, UniProt Q96SW2); assay: MAPPIT forward assay, CRBN receptor fusion + IKZF1 gp130 fusion; conditions: forward configuration; HEK293T cells; EPO; dose-response; IKZF1 isoform 7
T1 construct: expressed in transfected cells; host or cells: HEK293T
Source text: (§1) The traditional MAPPIT assay has been used to monitor protein-protein interactions. A bait protein (protein A) is expressed as a fusion protein in which it is genetically fused to an engineered intracellular receptor domain of the leptin receptor, which is itself fused to the extracellular domain of the erythropoietin (Epo) receptor. Binding of Epo ligand to the Epo receptor component results in activation of receptor-associated intracellular JAK2. However, activated JAK2 cannot activate the leptin receptor to trigger STAT3 binding and its phosphorylation because its tyrosine residues, normally phosphorylated by activated JAK2, have been mutated. […] Activation of STAT3 can be monitored by introduction of a STAT3-responsive reporter gene, including a luciferase-encoding gene or a gene encoding a fluorescent marker such as GFP or some other type of Fluorescent Protein (EGFP etc.). […]
(§2) Full size proteins were fused for each of the target/prey proteins tested, except in the case of IKZF1 where isoform 7 was used. […] Luciferase activity was measured 24 hours after test compound treatment using the Luciferase Assay System kit (PROMEGA, Madison, Wis.) with an Ensight plate reader (PERKIN ELMER LIFE SCIENCES, Waltham, Mass.). […]

[2] = target: T1, CRBN-IKZF1 interaction; assay: MAPPIT inverse assay, CRBN gp130 fusion + IKZF1 receptor fusion; conditions: inverse configuration; HEK293T cells; EPO; dose-response; IKZF1 isoform 7
Source text: as §1, §2

[3] = system: CRBN and human ORF(eome) cDNA library targets; assay: Inverse MAPPIT cell microarray ORF cDNA library screen with CRBN bait; conditions: HEK293T
Procedure: In order to identify ligand-induced CRBN substrates, or neosubstrates, a MAPPIT cell microarray screen was performed using the procedure described in Lievens, et al. “Proteome-scale binary interactomics in human cells.” Molecular & Cellular Proteomics 15.12 (2016): 3624-3639. In brief, HEK293T cells were transfected with a CRBN bait expression plasmid encoding a gp130-CRBN fusion construct. These transfected cells were then added to microarray screening plates containing a MAPPIT chimeric membrane receptor fusion expression plasmid collection covering over 15,000 ORFs. Each spot in the microarray contained a different chimeric receptor-ORF fusion expression plasmid, as well as a STAT3-responsive fluorescence protein-encoding reporter plasmid. Gp130-CRBN bait transfected cells landing and attaching on these spots therefore become transfected as well with the receptor-ORF prey plasmid and the reporter plasmid, resulting in a different CRBN-ORF combination being tested in the cells on every different microarray spot. Twenty-four hours after transfection cells were differentially stimulated with erythropoietin with and without the CRBN ligand CC-220 (1 μM final concentration), and reporter signal (GFP-like fluorescence reporter) was read out 48 hours later.

[4] = target: T2, CRBN-IKZF3 interaction (Homo sapiens, UniProt Q96SW2); assay: MAPPIT inverse assay, CRBN gp130 fusion + IKZF3 receptor fusion; parameters: expressed in transfected cells; host or cells: HEK293T; conditions: inverse configuration; HEK293T cells; EPO; dose-response
Source text: as §1, §2
Target sequence in this assay (Q96SW2 whole entry, the tested form may be a part): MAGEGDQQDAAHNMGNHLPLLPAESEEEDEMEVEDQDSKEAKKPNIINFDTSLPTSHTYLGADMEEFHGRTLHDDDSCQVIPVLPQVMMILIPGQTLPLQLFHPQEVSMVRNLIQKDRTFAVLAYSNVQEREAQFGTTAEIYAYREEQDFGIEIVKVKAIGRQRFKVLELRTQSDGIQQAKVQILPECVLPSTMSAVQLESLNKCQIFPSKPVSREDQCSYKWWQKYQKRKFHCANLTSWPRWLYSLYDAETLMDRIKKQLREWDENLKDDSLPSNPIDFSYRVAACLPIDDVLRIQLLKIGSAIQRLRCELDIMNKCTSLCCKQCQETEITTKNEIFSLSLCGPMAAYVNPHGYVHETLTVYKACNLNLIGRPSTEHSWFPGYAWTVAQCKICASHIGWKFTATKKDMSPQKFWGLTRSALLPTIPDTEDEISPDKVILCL
Target sequence in this assay (Q9UKT9 whole entry partner, the tested form may be a part): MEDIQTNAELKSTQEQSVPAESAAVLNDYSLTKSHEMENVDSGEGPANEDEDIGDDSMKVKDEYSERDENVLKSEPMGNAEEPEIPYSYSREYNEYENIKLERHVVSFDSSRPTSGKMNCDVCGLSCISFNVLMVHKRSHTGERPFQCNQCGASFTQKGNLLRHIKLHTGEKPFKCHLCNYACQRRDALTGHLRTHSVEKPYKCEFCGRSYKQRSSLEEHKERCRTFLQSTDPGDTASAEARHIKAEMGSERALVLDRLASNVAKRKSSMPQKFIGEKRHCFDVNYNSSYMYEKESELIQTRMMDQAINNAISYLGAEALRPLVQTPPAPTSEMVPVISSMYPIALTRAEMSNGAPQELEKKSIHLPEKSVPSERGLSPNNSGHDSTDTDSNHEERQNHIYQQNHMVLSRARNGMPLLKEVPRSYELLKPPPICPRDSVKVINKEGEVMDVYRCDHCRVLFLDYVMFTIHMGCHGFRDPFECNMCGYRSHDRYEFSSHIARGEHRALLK

[5] = target: T3, CRBN-IKZF2 interaction (Homo sapiens, UniProt Q96SW2); assay: MAPPIT inverse assay, CRBN gp130 fusion + IKZF2 receptor fusion; parameters: expressed in transfected cells; host or cells: HEK293T; conditions: inverse configuration; HEK293T cells; EPO; dose-response
Source text: as §1, §2
Target sequence in this assay (Q96SW2 whole entry, the tested form may be a part): as the sequence (Q96SW2 whole entry, the tested form may be a part) above
Target sequence in this assay (Q9UKS7 whole entry partner, the tested form may be a part): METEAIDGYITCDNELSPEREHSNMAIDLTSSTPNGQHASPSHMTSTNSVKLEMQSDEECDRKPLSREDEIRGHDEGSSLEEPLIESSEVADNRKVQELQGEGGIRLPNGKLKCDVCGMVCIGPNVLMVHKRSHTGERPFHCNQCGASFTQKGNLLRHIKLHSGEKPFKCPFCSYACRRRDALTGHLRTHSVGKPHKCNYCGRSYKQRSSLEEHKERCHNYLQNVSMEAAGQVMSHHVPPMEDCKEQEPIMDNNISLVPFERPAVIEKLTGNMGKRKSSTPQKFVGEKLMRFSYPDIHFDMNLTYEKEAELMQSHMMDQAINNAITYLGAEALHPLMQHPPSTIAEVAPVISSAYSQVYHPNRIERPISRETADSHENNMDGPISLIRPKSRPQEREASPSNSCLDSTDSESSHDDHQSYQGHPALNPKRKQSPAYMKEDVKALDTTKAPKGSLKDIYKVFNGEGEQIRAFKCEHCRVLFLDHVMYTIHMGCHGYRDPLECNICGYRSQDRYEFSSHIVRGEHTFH

[6] = target: CRBN-SALL4 interaction (Homo sapiens, UniProt Q96SW2); assay: MAPPIT inverse assay, CRBN gp130 fusion + SALL4 receptor fusion; parameters: expressed in transfected cells; host or cells: HEK293T; conditions: inverse configuration; HEK293T cells; EPO; dose-response
Source text: as §1, §2

[7] = target: T4, CRBN-ZFP91 interaction (Homo sapiens, UniProt Q96SW2); assay: MAPPIT inverse assay, CRBN gp130 fusion + ZFP91 receptor fusion; parameters: expressed in transfected cells; host or cells: HEK293T; conditions: inverse configuration; HEK293T cells; EPO; dose-response
Source text: as §1, §2
Target sequence in this assay (Q96SW2 whole entry, the tested form may be a part): as the sequence (Q96SW2 whole entry, the tested form may be a part) above
Target sequence in this assay (Q96JP5 whole entry partner, the tested form may be a part): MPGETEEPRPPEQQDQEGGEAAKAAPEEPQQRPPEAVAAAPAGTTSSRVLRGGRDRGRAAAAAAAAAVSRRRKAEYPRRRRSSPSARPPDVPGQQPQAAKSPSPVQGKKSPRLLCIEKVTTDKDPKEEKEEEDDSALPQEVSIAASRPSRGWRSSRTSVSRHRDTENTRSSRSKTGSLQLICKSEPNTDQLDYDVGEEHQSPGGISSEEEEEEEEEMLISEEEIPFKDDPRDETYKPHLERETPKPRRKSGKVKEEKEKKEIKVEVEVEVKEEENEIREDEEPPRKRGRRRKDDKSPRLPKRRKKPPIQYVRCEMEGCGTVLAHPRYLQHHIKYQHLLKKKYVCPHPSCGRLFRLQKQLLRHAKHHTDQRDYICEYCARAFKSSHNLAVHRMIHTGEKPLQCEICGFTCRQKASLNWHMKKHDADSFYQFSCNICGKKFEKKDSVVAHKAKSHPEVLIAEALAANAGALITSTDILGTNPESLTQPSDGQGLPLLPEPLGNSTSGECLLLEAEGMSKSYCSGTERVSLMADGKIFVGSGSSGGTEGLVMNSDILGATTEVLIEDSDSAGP

[8] = target: CRBN-CSNK1A (CK1a) interaction (Homo sapiens, UniProt Q96SW2); assay: MAPPIT inverse assay, CRBN gp130 fusion + CSNK1A1 receptor fusion; parameters: expressed in transfected cells; host or cells: HEK293T; conditions: inverse configuration; HEK293T cells; EPO; dose-response
Source text: as §1, §2

[9] = target: T2, CRBN-IKZF3 interaction; assay: MAPPIT forward assay, CRBN receptor fusion + IKZF3 gp130 fusion; parameters: MAPPIT chimeric receptor (EPO receptor extracellular domain + signaling-deficient leptin receptor part); expressed in transfected cells; host or cells: HEK293T; conditions: forward configuration; HEK293T cells; EPO; dose-response
Source text: as §1, §2
Target sequence in this assay (Q96SW2 whole entry, the tested form may be a part): as the sequence (Q96SW2 whole entry, the tested form may be a part) above

[10] = target: T3, CRBN-IKZF2 interaction; assay: MAPPIT forward assay, CRBN receptor fusion + IKZF2 gp130 fusion; parameters: MAPPIT chimeric receptor (EPO receptor extracellular domain + signaling-deficient leptin receptor part); expressed in transfected cells; host or cells: HEK293T; conditions: forward configuration; HEK293T cells; EPO; dose-response
Source text: as §1, §2
Target sequence in this assay (Q96SW2 whole entry, the tested form may be a part): as above

[11] = target: T4, CRBN-ZFP91 interaction; assay: MAPPIT forward assay, CRBN receptor fusion + ZFP91 gp130 fusion; parameters: MAPPIT chimeric receptor (EPO receptor extracellular domain + signaling-deficient leptin receptor part); expressed in transfected cells; host or cells: HEK293T; conditions: forward configuration; HEK293T cells; EPO; dose-response
Source text: as §1, §2
Target sequence in this assay (Q96SW2 whole entry, the tested form may be a part): as above

T1 sequence (Q96SW2 whole entry, the tested form may be a part, canonical isoform): as the sequence (Q96SW2 whole entry, the tested form may be a part) above
T1 sequence (Q13422 1-477 isoform Q13422-7 partner): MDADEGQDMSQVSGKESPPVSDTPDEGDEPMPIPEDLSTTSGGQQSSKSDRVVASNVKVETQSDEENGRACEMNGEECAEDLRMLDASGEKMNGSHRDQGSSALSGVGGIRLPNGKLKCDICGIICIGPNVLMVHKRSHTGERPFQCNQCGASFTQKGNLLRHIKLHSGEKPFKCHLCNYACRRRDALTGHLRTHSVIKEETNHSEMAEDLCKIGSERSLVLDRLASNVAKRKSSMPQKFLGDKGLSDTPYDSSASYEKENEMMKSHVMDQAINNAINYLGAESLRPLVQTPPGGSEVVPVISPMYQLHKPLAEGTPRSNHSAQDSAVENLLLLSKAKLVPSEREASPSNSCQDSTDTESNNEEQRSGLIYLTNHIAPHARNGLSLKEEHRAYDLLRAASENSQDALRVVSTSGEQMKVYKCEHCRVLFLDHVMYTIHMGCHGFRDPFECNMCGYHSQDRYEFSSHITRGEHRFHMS
Sequence of CRBN-CSNK1A (CK1a) interaction (Q96SW2 whole entry, the tested form may be a part): as the sequence (Q96SW2 whole entry, the tested form may be a part) above
Sequence of CRBN-CSNK1A (CK1a) interaction (P48729 whole entry partner, the tested form may be a part): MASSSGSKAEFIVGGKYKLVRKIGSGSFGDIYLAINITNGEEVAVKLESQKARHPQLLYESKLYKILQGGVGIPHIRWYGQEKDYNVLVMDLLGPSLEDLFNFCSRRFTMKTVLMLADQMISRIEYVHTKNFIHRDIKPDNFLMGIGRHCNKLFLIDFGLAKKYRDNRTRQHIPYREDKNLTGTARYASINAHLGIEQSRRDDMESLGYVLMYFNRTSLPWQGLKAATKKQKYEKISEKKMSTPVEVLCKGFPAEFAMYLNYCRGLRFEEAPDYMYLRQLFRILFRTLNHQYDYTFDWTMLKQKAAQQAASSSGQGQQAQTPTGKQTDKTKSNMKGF
Sequence of CRBN-SALL4 interaction (Q96SW2 whole entry, the tested form may be a part): as the sequence (Q96SW2 whole entry, the tested form may be a part) above
Sequence of CRBN-SALL4 interaction (Q9UJQ4 whole entry partner, the tested form may be a part): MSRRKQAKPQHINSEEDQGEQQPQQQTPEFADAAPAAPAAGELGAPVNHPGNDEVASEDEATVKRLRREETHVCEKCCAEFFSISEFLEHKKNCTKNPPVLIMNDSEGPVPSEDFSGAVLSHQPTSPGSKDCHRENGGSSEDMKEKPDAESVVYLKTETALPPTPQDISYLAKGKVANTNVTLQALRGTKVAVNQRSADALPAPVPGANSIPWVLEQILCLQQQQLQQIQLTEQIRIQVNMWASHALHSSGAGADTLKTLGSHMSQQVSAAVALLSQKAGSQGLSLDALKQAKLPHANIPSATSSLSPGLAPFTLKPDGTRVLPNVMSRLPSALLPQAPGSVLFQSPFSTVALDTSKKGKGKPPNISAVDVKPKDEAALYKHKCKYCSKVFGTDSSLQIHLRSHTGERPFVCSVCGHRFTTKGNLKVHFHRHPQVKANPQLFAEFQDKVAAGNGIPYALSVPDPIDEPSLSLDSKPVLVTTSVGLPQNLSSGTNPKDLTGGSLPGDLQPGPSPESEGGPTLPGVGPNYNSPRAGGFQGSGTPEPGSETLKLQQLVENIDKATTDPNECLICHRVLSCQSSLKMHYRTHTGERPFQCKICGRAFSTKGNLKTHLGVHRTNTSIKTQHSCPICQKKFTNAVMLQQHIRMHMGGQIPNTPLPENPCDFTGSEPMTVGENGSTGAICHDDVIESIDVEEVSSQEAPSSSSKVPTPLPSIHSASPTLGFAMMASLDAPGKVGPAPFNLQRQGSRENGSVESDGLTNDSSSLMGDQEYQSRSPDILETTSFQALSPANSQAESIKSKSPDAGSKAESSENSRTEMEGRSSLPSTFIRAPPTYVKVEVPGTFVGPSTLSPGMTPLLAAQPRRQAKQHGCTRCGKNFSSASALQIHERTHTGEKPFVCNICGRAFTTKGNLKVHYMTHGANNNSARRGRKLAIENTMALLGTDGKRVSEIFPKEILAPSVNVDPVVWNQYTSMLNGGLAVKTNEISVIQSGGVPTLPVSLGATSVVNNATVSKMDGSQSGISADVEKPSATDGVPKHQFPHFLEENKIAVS

O=C1CC[C@H](N2Cc3c(OCc4ccc(CN5CCOCC5)cc4)cccc3C2=O)C(=O)N1 [CC-220]
compound-induced binding of IKZF1 to CRBN (luciferase reporter signal) [1]: can be detected with both the forward and the inverse assay configuration | compound-induced binding of IKZF1 to CRBN (luciferase reporter signal) [2]: can be detected with both the forward and the inverse assay configuration | induction of fluorescence reporter signal in ORF cDNA cell microarray screen ([3]; CC-220 1 μM final concentration, over 15,000 ORFs, erythropoietin): a significant induction of signal is observed for a number of ORF cDNAs | dose-response confirmation of binding of three ORF hits to CRBN ([3]; inverse MAPPIT luciferase assay, EPO): dose-dependent binding to CRBN | compound-induced binding of IKZF3 to CRBN (luciferase reporter signal) [4]: an interaction signal response could be detected | compound-induced binding of IKZF2 to CRBN (luciferase reporter signal) [5]: an interaction signal response could be detected | compound-induced binding of SALL4 to CRBN (luciferase reporter signal) [6]: an interaction signal response could be detected | compound-induced binding of ZFP91 to CRBN (luciferase reporter signal) [7]: an interaction signal response could be detected | compound-induced binding of CSNK1A (CK1a) to CRBN (luciferase reporter signal) [8]: an interaction signal response could be detected; also recorded: specific signal in the inverse | compound-induced binding of IKZF3 to CRBN (luciferase reporter signal) [9]: only in the inverse assay setup an interaction signal response could be detected | compound-induced binding of IKZF2 to CRBN (luciferase reporter signal) [10]: only in the inverse assay setup an interaction signal response could be detected | compound-induced binding of ZFP91 to CRBN (luciferase reporter signal) [11]: only in the inverse assay setup an interaction signal response could be detected
